Several values for one entry are separate records, joined by “and”; a condition that tells them apart may be missing. Identical values can stand only once. Inconclusive results and toxic doses are left out.

This experiment concerns CD2F1 mice, L1210 leukemia ip, survival T/C. As to the kind of experiment: NCI In Vivo Anticancer Drug Screen. Data for tumor model L1210 Leukemia (intraperitoneal) in CD2F1 (CDF1) mice. To be noted: higher = longer survival. The method in brief:
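Tumor-bearing mice (transplanted tumor) were split into treated and vehicle control groups, and the measured endpoint of each treated group was divided by that of its vehicle controls.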

Setting [1] is: endpoint: mean survival time, dose: 100.0 mg/kg/injection, schedule: Q01DX009 (ip), vehicle: saline with Tween-80.
The mark [2] stands for this setting: endpoint: mean survival time, dose: 200.0 mg/kg/injection, schedule: Q01DX009 (ip), vehicle: saline with Tween-80.
The mark [3] stands for this setting: endpoint: mean survival time, dose: 400.0 mg/kg/injection, schedule: Q01DX009 (ip), vehicle: saline with Tween-80.
Setting [4] is: endpoint: mean survival time, dose: 200.0 mg/kg/injection, schedule: Q01DX001 (ip), vehicle: saline.
The mark [5] stands for this setting: endpoint: mean survival time, dose: 50.0 mg/kg/injection, schedule: Q01DX009 (ip), vehicle: Klucel (hydroxypropylcellulose) (HPC).
[6] abbreviates: endpoint: mean survival time, dose: 100.0 mg/kg/injection, schedule: Q01DX009 (ip), vehicle: Klucel (hydroxypropylcellulose) (HPC).
Where [7] appears, read: endpoint: mean survival time, dose: 200.0 mg/kg/injection, schedule: Q01DX009 (ip), vehicle: Klucel (hydroxypropylcellulose) (HPC).
Setting [8] is: endpoint: mean survival time, dose: 100.0 mg/kg/injection, schedule: Q04DX003 (ip), vehicle: saline with Tween-80.

Regarding `CCOCc1ccc(C(=O)O)cc1`, the T/C is 96 % of control under setting [1], 101 % of control under setting [2] and 101 % of control under setting [3].
Take `C[Si](C)(C)C1CCC2C3C=CC(C3)C21` (centres undefined): the T/C runs as follows: (endpoint: mean survival time, dose: 100.0 mg/kg/injection, schedule: Q04DX003 (ip), vehicle: alcohol) 107 % of control; (endpoint: mean survival time, dose: 200.0 mg/kg/injection, schedule: Q04DX003 (ip), vehicle: alcohol) 96 % of control; (endpoint: mean survival time, dose: 400.0 mg/kg/injection, schedule: Q04DX003 (ip), vehicle: alcohol) 96 % of control.
For the molecule `CCOC(=O)/C(C#N)=C\c1cccs1`, the T/C (endpoint: mean survival time, dose: 25.0 mg/kg/injection, schedule: Q04DX003 (ip), vehicle: Klucel (hydroxypropylcellulose) (HPC)) is 96 % of control; the T/C (endpoint: mean survival time, dose: 50.0 mg/kg/injection, schedule: Q04DX003 (ip), vehicle: Klucel (hydroxypropylcellulose) (HPC)) was 96 % of control; the T/C (endpoint: mean survival time, dose: 100.0 mg/kg/injection, schedule: Q04DX003 (ip), vehicle: Klucel (hydroxypropylcellulose) (HPC)) was 107 % of control.
For the molecule `Cc1c2c(ccc3ccccc32)c[n+]2ccccc12`, the T/C reads like this: (endpoint: mean survival time, dose: 1.56 mg/kg/injection, schedule: Q01DX009 (ip), vehicle: saline) 98 % of control and 100 % of control; (endpoint: mean survival time, dose: 3.12 mg/kg/injection, schedule: Q01DX009 (ip), vehicle: saline) 103 % of control and 106 % of control; (endpoint: mean survival time, dose: 6.25 mg/kg/injection, schedule: Q01DX009 (ip), vehicle: saline) 104 % of control and 105 % of control; (endpoint: mean survival time, dose: 12.5 mg/kg/injection, schedule: Q01DX009 (ip), vehicle: saline) 103 % of control and 108 % of control.
For the molecule `CCOC(=O)C(N)CSSCC(N)C(=O)OCC` (centres undefined), the T/C (endpoint: mean survival time, dose: 100.0 mg/kg/injection, schedule: Q04DX003 (ip), vehicle: saline) was 100 % of control; the T/C (endpoint: mean survival time, dose: 200.0 mg/kg/injection, schedule: Q04DX003 (ip), vehicle: saline) was 102 % of control; the T/C (endpoint: mean survival time, dose: 400.0 mg/kg/injection, schedule: Q04DX003 (ip), vehicle: saline) was 97 % of control.
Turning to `O=C(O)C(=O)O.O=C(O)C(=O)O.[Th]`, the T/C under setting [4] is 95 % of control and the T/C (endpoint: mean survival time, dose: 400.0 mg/kg/injection, schedule: Q01DX001 (ip), vehicle: saline) is 97 % of control.
`Nc1cccc(OCCOc2ccccc2[N+](=O)[O-])c1`: the T/C reads like this: (endpoint: mean survival time, dose: 100.0 mg/kg/injection, schedule: Q01DX001 (ip), vehicle: Klucel (hydroxypropylcellulose) (HPC)) 93 % of control; (endpoint: mean survival time, dose: 200.0 mg/kg/injection, schedule: Q01DX001 (ip), vehicle: Klucel (hydroxypropylcellulose) (HPC)) 90 % of control; (endpoint: mean survival time, dose: 400.0 mg/kg/injection, schedule: Q01DX001 (ip), vehicle: Klucel (hydroxypropylcellulose) (HPC)) 90 % of control.
Consider `CC1CN1P(=O)(N1CC1C)N1CC1C` (centres undefined), for which the T/C (endpoint: mean survival time, dose: 9.5 mg/kg/injection, schedule: Q01DX001 (ip), vehicle: saline) was 101 % of control; the T/C (endpoint: mean survival time, dose: 19.0 mg/kg/injection, schedule: Q01DX001 (ip), vehicle: saline) is 106 % of control; the T/C (endpoint: mean survival time, dose: 38.0 mg/kg/injection, schedule: Q01DX001 (ip), vehicle: saline) was 117 % of control.
Regarding `Cc1cn(C2OC(CO)C(O)C2O)c([Se])nc1=O` (centres undefined), the T/C (endpoint: mean survival time, dose: 50.0 mg/kg/injection, schedule: Q01DX005 (ip), vehicle: water) is 97 % of control; the T/C (endpoint: mean survival time, dose: 100.0 mg/kg/injection, schedule: Q01DX005 (ip), vehicle: water) is 90 % of control; the T/C (endpoint: mean survival time, dose: 200.0 mg/kg/injection, schedule: Q01DX005 (ip), vehicle: water) was 90 % of control.
In the case of `Oc1c(Cl)cc(Cl)cc1CN(Cc1cc(Cl)cc(Cl)c1O)c1ccccc1`, the T/C reads like this: (endpoint: mean survival time, dose: 12.5 mg/kg/injection, schedule: Q01DX009 (ip), vehicle: Klucel (hydroxypropylcellulose) (HPC)) 103 % of control; (endpoint: mean survival time, dose: 25.0 mg/kg/injection, schedule: Q01DX009 (ip), vehicle: Klucel (hydroxypropylcellulose) (HPC)) 102 % of control; under setting [5], 101 % of control; under setting [6], 100 % of control; under setting [7], 100 % of control; (endpoint: mean survival time, dose: 400.0 mg/kg/injection, schedule: Q01DX009 (ip), vehicle: Klucel (hydroxypropylcellulose) (HPC)) 94 % of control.
Turning to `Cc1nc2c(N)cc(Cl)cc2[nH]1`, the T/C was 101 % of control (endpoint: median survival time, dose: 25.0 mg/kg/injection, schedule: Q01DX005 (ip), vehicle: saline with Tween-80); 101 % of control (endpoint: median survival time, dose: 50.0 mg/kg/injection, schedule: Q01DX005 (ip), vehicle: saline with Tween-80); 103 % of control (endpoint: median survival time, dose: 100.0 mg/kg/injection, schedule: Q01DX005 (ip), vehicle: saline with Tween-80).
As for `NC(=S)NN=C1CCC(=NNC(N)=S)CC1`, the T/C was 94 % of control (endpoint: mean survival time, dose: 50.0 mg/kg/injection, schedule: Q01DX009 (ip), vehicle: other); 91 % of control (endpoint: mean survival time, dose: 100.0 mg/kg/injection, schedule: Q01DX009 (ip), vehicle: other); 89 % of control (endpoint: mean survival time, dose: 250.0 mg/kg/injection, schedule: Q01DX009 (ip), vehicle: other).
As for `CC1(C)OC2C(/C=N/O)OC(n3ccc(=O)[nH]c3=O)C2O1` (centres undefined), the T/C is 107 % of control (endpoint: median survival time, dose: 23.13 mg/kg/injection, schedule: Q01DX005 (ip), vehicle: Klucel (hydroxypropylcellulose) (HPC)); 102 % of control (endpoint: median survival time, dose: 46.25 mg/kg/injection, schedule: Q01DX005 (ip), vehicle: Klucel (hydroxypropylcellulose) (HPC)); 102 % of control (endpoint: median survival time, dose: 92.5 mg/kg/injection, schedule: Q01DX005 (ip), vehicle: Klucel (hydroxypropylcellulose) (HPC)); 108 % of control (endpoint: median survival time, dose: 185.0 mg/kg/injection, schedule: Q01DX005 (ip), vehicle: Klucel (hydroxypropylcellulose) (HPC)).
In the case of `COc1ccc(NC(=O)Oc2cc(=O)oc3ccccc23)c(Cl)c1`, the T/C is, setting by setting: under setting [5], 107 % of control; under setting [6], 96 % of control; under setting [7], 100 % of control.
Consider `CCCCCCCCCCCC(=O)[O][Sn]([CH2]CCC)([CH2]CCC)[O]C(=O)CCCCCCCCCCC`, for which the T/C is, setting by setting: (endpoint: mean survival time, dose: 3.0 mg/kg/injection, schedule: Q04DX003 (ip), vehicle: saline with Tween-80) 100 % of control; (endpoint: mean survival time, dose: 6.0 mg/kg/injection, schedule: Q04DX003 (ip), vehicle: saline with Tween-80) 103 % of control; (endpoint: mean survival time, dose: 12.0 mg/kg/injection, schedule: Q04DX003 (ip), vehicle: saline with Tween-80) 103 % of control.
As to `CCOC(=O)CN1C(=O)CN=C(c2ccccn2)c2cc(Cl)ccc21`, the T/C was 102 % of control under setting [8]; 89 % of control (endpoint: mean survival time, dose: 200.0 mg/kg/injection, schedule: Q04DX003 (ip), vehicle: saline with Tween-80); 89 % of control (endpoint: mean survival time, dose: 400.0 mg/kg/injection, schedule: Q04DX003 (ip), vehicle: saline with Tween-80).
For `CCOC(=O)CCC(NC(=O)N(CCCl)CCCl)C(=O)OCC` (centres undefined), the T/C reads like this: (endpoint: mean survival time, dose: 25.0 mg/kg/injection, schedule: Q01DX001 (ip), vehicle: carboxymethylcellulose (CMC)) 97 % of control; (endpoint: mean survival time, dose: 50.0 mg/kg/injection, schedule: Q01DX001 (ip), vehicle: carboxymethylcellulose (CMC)) 106 % of control; (endpoint: mean survival time, dose: 100.0 mg/kg/injection, schedule: Q01DX001 (ip), vehicle: saline) 103 % of control; under setting [4], 114 % of control; (endpoint: mean survival time, dose: 900.0 mg/kg/injection, schedule: Q01DX001 (ip), vehicle: carboxymethylcellulose (CMC)) 102 % of control.
For the molecule `Cc1ccc2nc(NC(=O)N(CCCl)N=O)sc2c1`, the T/C reads like this: (endpoint: mean survival time, dose: 118.0 mg/kg/injection, schedule: Q01DX009 (ip), vehicle: other) 197 % of control; (endpoint: mean survival time, dose: 177.0 mg/kg/injection, schedule: Q01DX001 (ip), vehicle: other) 162 % of control; (endpoint: mean survival time, dose: 177.0 mg/kg/injection, schedule: Q01DX009 (ip), vehicle: other) 96 % of control; (endpoint: mean survival time, dose: 266.0 mg/kg/injection, schedule: Q01DX001 (ip), vehicle: other) 154 % of control; (endpoint: mean survival time, dose: 266.0 mg/kg/injection, schedule: Q01DX009 (ip), vehicle: other) 111 % of control; (endpoint: mean survival time, dose: 400.0 mg/kg/injection, schedule: Q01DX001 (ip), vehicle: other) 156 % of control. Moreover, the T/C is 88 % of control (endpoint: mean survival time, dose: 400.0 mg/kg/injection, schedule: Q01DX009 (ip), vehicle: other) and 234 % of control (endpoint: mean survival time, dose: 600.0 mg/kg/injection, schedule: Q01DX001 (ip), vehicle: other).
Turning to `CC(=O)N/C(=C\c1ccccc1)C(N)=O`, the T/C is, setting by setting: under setting [1], 103 % of control; under setting [2], 95 % of control; under setting [3], 100 % of control.
On to `c1ccc(-c2nncnn2)cc1`, for which the T/C under setting [8] was 92 % of control.

(Values after PubChem BioAssay AID256 (DTP/NCI, 2004).)
